Square brackets hold non-standard residues; d marks the D form. Peptide text beside a SMILES is read from it. Phg = N[C@H](C(=O)O)c1ccccc1
Legend:
[1] = literature / prior patents; cited from earlier work
[2] = Sweetness intensity relative to sucrose, taste panel; type: in vivo, human; settings: based on informal panel testing
Excerpt: The sweetness intensity of the esters and amides of the present invention relative to sucrose can be determined according to the following procedure:
Male subjects are chosen at random from a group of about 20 persons who have previously been selected on the basis of proven tasting acuity, i.e., persons who could easily recognize the four basic tastes (sweet, sour, bitter and salty) and who are adept at quantifying their own physiological response numerically. The subjects are asked to taste and expectorate about 10 ml of a test sample (temperature of about 22° C.) having dissolved therein the ester or amide. […] Sweetness intensity of the test sample is recorded by the subject making a mark on the linear scale at a point they consider equal in sweetness among the standard samples; interpolation between standards is encouraged. After completion of the panel, a five point numeric scale is superimposed on the linear scales to obtain numerical data; data is averaged and recorded to the nearest 0.25 unit. Equivalent sucrose sweetness is determined by referring to graphs of (w/v) sucrose concentration in the standard samples versus a linear numeric scale.
Sweetness intensity is calculated by dividing the concentration (w/v) of perceived sweetness by the concentration (w/v) of the ester or amide required to produce that sweetness. […]

[3] = most carbonated beverages, pH about 2.5 to about 4.8; cited from earlier work

C[C@@H](NC(=O)[C@@H](N)CC(=O)O)C(=O)NC1C(C)(C)S(=O)(=O)C1(C)C
sweetness intensity, times that of sucrose [1]: 1000 times that of sucrose

C[C@@H](NC(=O)[C@@H](N)CC(=O)O)C(=O)NC1C(C)(C)SC1(C)C [2,2,4,4-tetramethylthietan-3-yl]
sweetness intensity, times that of sucrose [1]: 2000 times that of sucrose

CC1CCC(C)C1NC(=O)[C@@H](C)NC(=O)[C@@H](N)CC(=O)O (stereo partly drawn) [2,5 dimethylcyclopentyl]
sweetness intensity, times that of sucrose [1]: 520 times that of sucrose

CC1CCCC(C)C1NC(=O)[C@@H](C)NC(=O)[C@@H](N)CC(=O)O (stereo partly drawn) [2,6-dimethylcyclohexyl]
sweetness intensity, times that of sucrose [1]: 600 times that of sucrose

CC12CCC(O1)C(C)(C)C2OC(=O)[C@H](NC(=O)[C@@H](N)CC(=O)O)c1ccccc1 (stereo partly drawn) [Example 2, alpha-L-Aspartyl-D-phenylglycine-alpha-7-oxa-fenchyl ester]
Sweetness (× Sucrose) [2]: 1000 × Sucrose | Sweetness intensity ([2]; isolated diastereomer): approximately 1000 X

O=C1NS(=O)(=O)c2ccccc21 [Saccharin]
sweetness intensity, times that of sucrose [1]: about 300 times that of sucrose | taste quality [1]: lingering bitter aftertaste

COC(=O)[C@H](Cc1ccccc1)NC(=O)[C@@H](N)CC(=O)O [aspartame, alpha-L-aspartyl-L-phenylalanine methyl ester] (H-Asp-Phe-OMe)
hydrolytic stability in carbonated beverages [3]: hydrolytically unstable | sweetness intensity, times that of sucrose [1]: 150-200 times that of sucrose | taste quality [1]: approaching that of sucrose

C[C@@H](NC(=O)[C@@H](N)CC(=O)O)C(=O)NC(C1CC1)C1CC1 [dicyclopropylcarbinyl]
sweetness intensity, times that of sucrose [1]: 1200 times that of sucrose

CCOC(=O)C(NC(=O)[C@@H](N)CC(=O)O)C(=O)OC1C2(C)CCC(C2)C1(C)C (stereo partly drawn) [ethyl]
sweetness intensity, times that of sucrose [1]: 4200-5400 times that of sucrose

C[C@@H](NC(=O)[C@@H](N)CC(=O)O)C(=O)NC1C2(C)CCC(C2)C1(C)C (stereo partly drawn) [fenchyl]
sweetness intensity, times that of sucrose [1]: 320 times that of sucrose

COC(=O)[C@@H](Cc1ccccc1)NC(=O)[C@@H](N)CC(=O)O [methyl ester of L-aspartyl-D-phenylalanine] (H-Asp-[dF]-OMe)
taste quality [1]: bitter

COC(=O)[C@@H](NC(=O)[C@@H](N)CC(=O)O)c1ccccc1 [methyl ester of L-aspartyl-L-phenylglycine] (H-Asp-[Phg]-OMe)
sweetness intensity, times that of sucrose [1]: 100-1000 times that of sucrose | taste quality [1]: quite sweet

COC(=O)C(NC(=O)[C@@H](N)CC(=O)O)C(=O)OC1C2(C)CCC(C2)C1(C)C (stereo partly drawn) [methyl]
sweetness intensity, times that of sucrose [1]: 22,200-33,200 times that of sucrose
